Patent US4436733A, “4"- And 3-ester derivatives of DMT and DMOT” (Eli Lilly and Company, priority 1982, dated 1984)
Like-named read-outs stand apart in the source and are kept apart here.

Columns and labels:
[1] = system: Staphylococcus aureus S13E; experiment: standard agar-dilution assay, MIC; type: cell-based
Method: (§1) The MIC's in Table III were determined by standard agar-dilutionassays. The MIC's in Table IV were obtained using a conventional broth-dilution microtiter test.

[2] = system: Staphylococcus aureus X1.1; experiment: standard agar-dilution assay, MIC; type: cell-based
Method: as §1

[3] = system: Staphylococcus epidermidis EPI1; experiment: standard agar-dilution assay, MIC; type: cell-based
Method: as §1

[4] = system: Staphylococcus epidermidis EPI2; experiment: standard agar-dilution assay, MIC; type: cell-based
Method: as §1

Streptococcus Group 9960 = experiment: standard agar-dilution assay, MIC; type: cell-based
Method: as §1

[5] = system: Streptococcus Group D X66; experiment: standard agar-dilution assay, MIC; type: cell-based
Method: as §1

[6] = system: Streptococcus pneumoniae Park I; experiment: standard agar-dilution assay, MIC; type: cell-based
Method: as §1

[7] = system: Streptococcus pyogenes C203; experiment: standard agar-dilution assay, MIC; type: cell-based
Method: as §1

[8] = system: Staphylococcus aureus V41; experiment: standard agar-dilution assay, MIC; type: cell-based; conditions: Staphylococcus aureus V41, penicillin resistant strain
Method: as §1
^b Penicillinresistant strain

[9] = system: Staphylococcus aureus X400; experiment: standard agar-dilution assay, MIC; type: cell-based; conditions: Staphylococcus aureus X400, methicillin resistant strain
Method: as §1
^c Methicillinresistant-strain

[10] = system: Haemophilus influenzae Holt; experiment: standard agar-dilution assay, MIC; type: cell-based; conditions: ampicillin sensitive strain
Method: as §1
^d Ampicillinsensitive strain

[11] = system: Haemophilus influenzae R252; experiment: standard agar-dilution assay, MIC; type: cell-based; conditions: Haemophilus influenzae R252, ampicillin resistant strain
Method: as §1
^e Ampicillinresistant strain

Mycoplasma gallisepticum = experiment: conventional broth-dilution microtiter test, MIC; type: cell-based
Method: as §1

Mycoplasma hyorhinis = experiment: conventional broth-dilution microtiter test, MIC; type: cell-based
Method: as §1

Mycoplasma synoviae = experiment: conventional broth-dilution microtiter test, MIC; type: cell-based
Method: as §1

[12] = system: Pasteurella multocida 17E; experiment: conventional broth-dilution microtiter test, MIC; type: cell-based; conditions: bovine isolate
Method: as §1

[13] = system: Pasteurella multocida 60A; experiment: conventional broth-dilution microtiter test, MIC; type: cell-based; conditions: avian isolate
Method: as §1

Staphylococcus aureus = experiment: conventional broth-dilution microtiter test, MIC; type: cell-based
Method: as §1

Streptococcus sp. 80 = experiment: conventional broth-dilution microtiter test, MIC; type: cell-based
Method: as §1

[14] = system: Streptococcus pyogenes C203; experiment: experimental bacterial infection in mice, ED50; type: in vivo; conditions: doses given 1 and 5 hours postinfection, read-out: ED50 (effective dose to protect 50% of the test animals)
Method: The ester derivatives of this invention have shown in vivo antimicrobial activity against experimental bacterial infections caused by gram-positivebacteria. When two doses of test compound were administered to mice with experimental infections, the activity observed was measured as an ED50 value [effective dose in mg/kg to protect 50% of the test animals: see Warren Wick, et al., J. Bacteriol. 81, 233-235 (1961)].
^a mg/kg × 2; doses given 1 and 5 hours postinfection

| Compound | MIC (minimal inhibitory concentration) [1] | MIC (minimal inhibitory concentration) [2] | MIC (minimal inhibitory concentration) [3] | MIC (minimal inhibitory concentration) [4] | MIC (minimal inhibitory concentration) (Streptococcus Group 9960) | MIC (minimal inhibitory concentration) [5] | MIC (minimal inhibitory concentration) [6] | MIC (minimal inhibitory concentration) [7] | MIC (minimal inhibitory concentration) [8] | MIC (minimal inhibitory concentration) [9] | MIC (minimal inhibitory concentration) [10] | MIC (minimal inhibitory concentration) [11] | MIC (minimal inhibitory concentration) (Mycoplasma gallisepticum) | MIC (minimal inhibitory concentration) (Mycoplasma hyorhinis) | MIC (minimal inhibitory concentration) (Mycoplasma synoviae) | MIC (minimal inhibitory concentration) [12] | MIC (minimal inhibitory concentration) [13] | MIC (minimal inhibitory concentration) (Staphylococcus aureus) | MIC (minimal inhibitory concentration) (Streptococcus sp. 80) | ED50 ([14]; C203, mice, oral) [mg/kg] | also measured |
| --- | --- | --- | --- | --- | --- | --- | --- | --- | --- | --- | --- | --- | --- | --- | --- | --- | --- | --- | --- | --- | --- |
| CCC1OC(=O)CC(O)C(C)C(OC2OC(C)C(OC3CC(C)(O)C(OC(C)=O)C(C)O3)C(N(C)C)C2OC(C)=O)C(CC=O)CC(C)C(=O)C=CC(C)=CC1COC(C)=O (stereo not shown) [Compound 1, 2',4",23-Tri-O-Acetyl-DMT] | 1 | 1 | 1 | 2 | 1 | 1 | 0.125 | 0.5 | 0.5 | 2 | 16 | 16 | 0.39 | 1.56 | 0.78 | 12.5 | 25 | 3.12 | 0.78 | 179 |  |
| CCC1OC(=O)CC(O)C(C)C(OC2OC(C)C(OC3CC(C)(O)C(OC(C)=O)C(C)O3)C(N(C)C)C2O)C(CC=O)CC(C)C(=O)C=CC(C)=CC1COC(C)=O (stereo not shown) [Compound 2, 23,4"-Di-O-Acetyl-DMT] | 0.5 | 0.5 | 1 | 1 | 0.5 | 0.5 | 0.125 | 0.25 | 0.25 | 1 | 16 | 16 | 0.097 | 0.78 | 0.39 | 6.25 | 12.5 | 0.78 | 0.39 | 117 |  |
| CCC(=O)OC1CC(=O)OC(CC)C(COC(=O)C(Cl)(Cl)Cl)C=C(C)C=CC(=O)C(C)CC(CC=O)C(OC2OC(C)C(OC3CC(C)(O)C(OC(=O)CC)C(C)O3)C(N(C)C)C2OC(C)=O)C1C (stereo not shown) [Compound 15, 2'-O-Acetyl-3,4"-Di-O-Propionyl-23-O-Trichloroacetyl-DMT] | 0.5 | 0.5 | 0.5 | 1 | 1 | 2 | 0.06 | 0.5 | 1 | 1 | 64 | 32 | 0.39 | 3.12 | 0.39 | 50 | 50 | 1.56 | 1.56 |  |  |
| CCC(=O)OC1CC(=O)OC(CC)C(CO)C=C(C)C=CC(=O)C(C)CC(CC=O)C(OC2OC(C)C(OC3CC(C)(O)C(OC(=O)CC)C(C)O3)C(N(C)C)C2O)C1C (stereo not shown) [Compound 17, 3,4"-Di-O-Propionyl-DMT] | 0.5 | 0.5 | 0.5 | 1 | 1 | 1 | 0.06 | 0.25 | 1 | 1 | 16 | 8 | 0.097 | 3.12 | 0.195 | 25 | 50 | 1.56 | 0.78 |  |  |
| CCC1OC(=O)CC(O)C(C)C(OC2OC(C)C(OC3CC(C)(O)C(OC(=O)CC(C)C)C(C)O3)C(N(C)C)C2O)C(CC=O)CC(C)C(=O)C=CC(C)=CC1C (stereo not shown) [Compound 19, 4"-O-Isovaleryl-DMOT] | 1 | 1 | 1 | 1 | 1 | 1 | 0.03 | 0.25 | 1 | 1 | 8 | 8 | 0.195 | 0.39 | 0.39 | 6.25 | 12.5 | 3.12 | 0.195 |  |  |
| CCC(=O)OC1C(C)OC(OC2C(C)OC(OC3C(CC=O)CC(C)C(=O)C=CC(C)=CC(C)C(CC)OC(=O)CC(O)C3C)C(O)C2N(C)C)CC1(C)O (stereo not shown) [Compound 24, 4"-O-Propionyl-DMOT] | 0.5 | 0.5 | 0.5 | 1 | 0.5 | 1 | 0.125 | 0.5 | 1 | 0.5 | 8 | 8 | 0.097 | 3.12 | 0.78 | 6.25 | 12.5 | 0.78 | 0.39 | 71 | ED50 ([14]; C203, sc, mice, subcutaneous): 22 mg/kg |
| CCC(=O)OC1CC(=O)OC(CC)C(C)C=C(C)C=CC(=O)C(C)CC(CC=O)C(OC2OC(C)C(OC3CC(C)(O)C(OC(=O)CC)C(C)O3)C(N(C)C)C2O)C1C (stereo not shown) [Compound 25, 3,4"-Di-O-propionyl-DMOT] | 0.5 | 0.5 | 1 | 2 | 1 | 1 | 0.25 | 0.5 | 1 | 1 | 32 | 16 | 0.195 | 1.56 | 0.39 | 25 | 50 | 1.56 | 1.56 | 36 | ED50 ([14]; C203, sc, mice, subcutaneous): > 30 mg/kg |
